# What was measured:
# RORγ-LBD (RORγt) = molecular target: T1, RORγ-LBD (RORγt) (Homo sapiens, UniProt P51449); assay: TR-FRET RORγt Binding Assay; conditions: 6-His(GST)RORγ-LBD, SRC1_2 peptide, read-out: RORγt Binding
# T1 construct: the 6-His-(GST) RORγ-LBD was used which expressed and purified from baculovirus infected Sf-21 insect cells; made in house; host or cells: baculovirus-infected Sf-21 insect cells
# T1 sequence (P51449 269-508 limits assumed): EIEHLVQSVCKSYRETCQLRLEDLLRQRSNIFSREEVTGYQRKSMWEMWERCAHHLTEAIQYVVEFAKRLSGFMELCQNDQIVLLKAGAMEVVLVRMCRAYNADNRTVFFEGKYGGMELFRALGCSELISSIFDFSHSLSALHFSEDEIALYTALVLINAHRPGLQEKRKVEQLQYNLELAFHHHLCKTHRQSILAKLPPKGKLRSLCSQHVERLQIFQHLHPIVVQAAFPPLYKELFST
# Description: TR-FRET RORγt Binding Assay: RORγ-LBD contains a 6-His and GST tag peptide from SRC1-2 an aminoterminal biotinyl-[…] was employed and the 6-His-(GST) RORγ-LBD was used which expressed and purified from baculovirus infected Sf-21 insect cells from Invitrogen and purified using glutathione sepharose. […] The peptide binding due to dose-curves of compounds was added the 0.1% DMSO. Fluorescence at wavelength 340 nm was read in each well of […] using an Envision fluorescence reader in Time Resolved mode after overnight incubation at 4° C.
# [1] = tested on: IL-17 release from CD4+ T cells; assay: Cytokine IL-17 estimation by HTRF, IL-17 release from CD4+ T cells; type: cell-based; conditions: Homo sapiens, IL-17 release from CD4+ T cells, HTRF, read-out: IL-17 Inhibition
# From the text: The assay was designed to assess the potency of test compounds on IL-17 cytokine release from CD4+ T cells. In order to aid in the identification of potent inhibitors, the IC50's determined for the test compounds IL-17 release from CD4+ T cells through the generation of 10 point Dose Response Curves (DRC). Assay methods used to quantify IL-17 secretion is HTRF (Homogenous Time Resolved Fluorescence). IL-17 secreted is detected by anti-IL-17 MAb labeled with XL665, the second MAb labeled with Cryptate, which binds to specific epitopes of human IL-17. Upon close proximity of both acceptor and donor energy transfer (FRET) occurs. This technique has been further enhanced by using long-lived labels combined with the detection on a time-resolved fluorescence basis, allowing […] of prompt fluorescence interferences.
# The assay was performed according to manufacturer's instruction. All the reagents were reconstituted according to instructions provided. The reagents were dispensed into a half area 96-well plate in the following order: […] or sample, IL-17 MAbXL665 and 5 μL IL-17 Cryptate. For the negative control, the standard or sample is replaced by […]. The plate is covered with a plate sealer and incubated at rt for 2 h. Following incubation, the plate sealer is removed and the plate is read using HTRF protocol on Envision Microplate reader. All of the data analysis was carried out using Microsoft Excel (2010) and IC50 was determined using GraphPad Prism 4 software. % Inhibition of the test compounds were determined utilizing the following formula: % Inhibition=100−(100*(Average Test Compound Counts−Average Negative Control Counts)/(Average Positive Control Counts−Average Negative Control Counts)).
# We have established robust in vitro cell-based HTRF assay for the activation and stimulation of CD4+ T lymphocytes to T helper 17 (Th17) cell differentiation and IL-17 production.
# RORγt = molecular target: T2, RORγt (Homo sapiens, UniProt P51449); assay: RORγt-activated IL-17A Prom/LUCPorter HEK 293 cells luciferase reporter assay; type: cell-based; conditions: IL-17A Prom/LUCPorter HEK 293 cells transfected with RORγt, 16 h; read-out: RORγt Cell Specific
# T2 construct: host or cells: IL-17A Prom/LUCPorter HEK 293 cell line (IMGENEX, IML-301)
# T2 sequence (P51449 1-497 isoform P51449-2): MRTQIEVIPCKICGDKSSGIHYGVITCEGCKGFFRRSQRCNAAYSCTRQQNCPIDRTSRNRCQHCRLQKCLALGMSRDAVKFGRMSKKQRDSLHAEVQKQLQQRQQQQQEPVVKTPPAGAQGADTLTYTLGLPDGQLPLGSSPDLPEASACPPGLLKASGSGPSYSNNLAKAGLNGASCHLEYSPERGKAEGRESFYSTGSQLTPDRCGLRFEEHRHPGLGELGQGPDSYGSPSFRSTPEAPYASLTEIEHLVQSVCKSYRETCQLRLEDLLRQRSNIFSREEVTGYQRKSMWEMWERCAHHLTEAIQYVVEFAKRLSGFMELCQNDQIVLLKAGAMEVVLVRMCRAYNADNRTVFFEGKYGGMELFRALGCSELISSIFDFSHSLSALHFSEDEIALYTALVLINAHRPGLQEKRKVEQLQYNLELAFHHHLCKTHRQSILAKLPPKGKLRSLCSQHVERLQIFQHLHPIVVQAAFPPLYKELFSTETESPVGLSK
# Description: Antagonistic (or inverse agonistic) effects of the test compounds on the RORγt-activated IL-17A Prom/LUCPorter™ HEK 293 cells were analyzed and IC50 of each compound was evaluated. […] Luciferase activity was analyzed using the luciferase reporter assay reagent (IMGENEX, LS100). The data were analyzed using Excel and Prism software. Percent activity was defined as 100×(1−(Well−Control A)/(Control B−Control A)), where Control A was the wells containing cells transfected with RORγt and Control B was the wells containing non-transfected cells. Both Controls A and B were treated with vehicle alone.
Structure (SMILES),IC50 (RORγ-LBD (RORγt)) [nM],IC50 [1] [nM],IC50 (RORγt) [nM]
COc1ccc2c(c1OC)CC(Cc1ncccc1C(F)(F)F)C2=O (stereo not drawn) [compound 169],> 1000,< 500,> 1000
COc1cc2c(cc1Cl)CC(Cc1ccc(SC(F)(F)F)cc1)C2=O (stereo not drawn) [compound 172],> 1000,< 500,> 1000
COc1cc2c(cc1Cl)CC(Cc1ncccc1C(F)(F)F)C2=O (stereo not drawn) [compound 174],> 1000,< 500,> 1000
COc1ccc2c(c1)CC(Cc1ccc(SC(F)(F)F)cc1)C2=O (stereo not drawn) [compound 182],> 1000,< 500,> 1000
COc1cc2c(cc1O)C(=O)C(Cc1ccc(SC(F)(F)F)cc1)C2 (stereo not drawn) [compound 187],> 1000,< 500,> 1000
COc1cc2c(cc1-c1ccc(OC(F)(F)F)cc1F)CC(Cc1ncccc1C(F)(F)F)C2=O (stereo not drawn) [compound 216],> 1000,< 500,> 1000
"COc1cc2c(cc1N1CCN(C)CC1)CC(Cc1cc(OC(F)(F)F)cc(C(O)(C(F)(F)F)C(F)(F)F)c1)C2=O (stereo not drawn) [compound 236, 2-(3-(1,1,1,3,3,3-hexafluoro-2-hydroxypropan-2-yl)-5-(trifluoromethoxy)benzyl)-6-methoxy-5-(4-methylpiperazin-1-yl)-2,3-dihydro-1H-inden-1-one]",> 1000,< 500,> 1000
COc1cc2c(cc1N1CCOCC1)CC(Cc1cncc(C(O)(C(F)(F)F)C(F)(F)F)c1)C2=O (stereo not drawn) [compound 245],> 1000,> 1000,< 500
COc1cc2c(cc1N1CCOCC1)CC(Cc1cccc(C(O)(C(F)(F)F)C(F)(F)F)n1)C2=O (stereo not drawn) [compound 266],< 500,< 500,< 500
COc1cc2c(cc1N1CCOCC1)CC(Cc1ncc(C(O)(C(F)(F)F)C(F)(F)F)cc1C(F)(F)F)C2=O (stereo not drawn) [compound 268],< 500,< 500,< 500

# Results, then the compound that gave them:
IC50 (RORγ-LBD (RORγt)) [nM],IC50 [1] [nM],IC50 (RORγt) [nM],Structure (SMILES)
< 500,< 500,> 1000,COc1ccc2c(c1Cl)CC(Cc1ccc(SC(F)(F)F)cc1)C2=O (stereo not drawn) [compound 177]
< 500,< 500,> 1000,COc1ccc2c(c1Cl)CC(Cc1ncccc1C(F)(F)F)C2=O (stereo not drawn) [compound 179]
< 500,< 500,> 1000,COc1ccc2c(c1)CC(Cc1ncccc1C(F)(F)F)C2=O (stereo not drawn) [compound 184]
< 500,< 500,> 1000,CCS(=O)(=O)Oc1cc2c(cc1OC)CC(Cc1ccc(SC(F)(F)F)cc1)C2=O (stereo not drawn) [compound 188]
< 500,< 500,> 1000,COc1cc2c(cc1O)C(=O)C(Cc1ncccc1C(F)(F)F)C2 (stereo not drawn) [compound 190]
< 500,< 500,< 500,CCS(=O)(=O)Oc1cc2c(cc1OC)CC(Cc1ncccc1C(F)(F)F)C2=O (stereo not drawn) [compound 191]
< 500,< 500,< 500,O=C1c2ccc(O)cc2CC1Cc1ccc(SC(F)(F)F)cc1 (stereo not drawn) [compound 193]
< 500,< 500,< 500,CCS(=O)(=O)Oc1ccc2c(c1)CC(Cc1ccc(SC(F)(F)F)cc1)C2=O (stereo not drawn) [compound 194]
< 500,< 500,> 1000,COc1cc2c(cc1-c1ccccc1OC(F)(F)F)CC(Cc1ncccc1C(F)(F)F)C2=O (stereo not drawn) [compound 213]
< 500,< 500,< 500,"COc1cc2c(cc1N1CCOCC1)CC(Cc1cc(C(F)(F)F)cc(C(O)(C(F)(F)F)C(F)(F)F)c1)C2=O (stereo not drawn) [compound 229, 2-(3-(1,1,1,3,3,3-hexafluoro-2-hydroxypropan-2-yl)-5-(trifluoromethyl)benzyl)-6-methoxy-5-morpholino-2,3-dihydro-1H-inden-1-one]"
< 500,< 500,< 500,"COc1cc2c(cc1N1CCOCC1)CC(Cc1c(F)ccc(C(O)(C(F)(F)F)C(F)(F)F)c1F)C2=O (stereo not drawn) [compound 232, 2-(2,6-difluoro-3-(1,1,1,3,3,3-hexafluoro-2-hydroxypropan-2-yl)benzyl)-6-methoxy-5-morpholino-2,3-dihydro-1H-inden-1-one]"
< 500,< 500,< 500,"COc1cc2c(cc1N1CCN(C)CC1)CC(Cc1cc(C(F)(F)F)cc(C(O)(C(F)(F)F)C(F)(F)F)c1)C2=O (stereo not drawn) [compound 240, 2-(3-(1,1,1,3,3,3-hexafluoro-2-hydroxypropan-2-yl)-5-(trifluoromethyl)benzyl)-6-methoxy-5-(4-methylpiperazin-1-yl)-2,3-dihydro-1H-inden-1-one]"
< 500,< 500,< 500,COc1cc2c(cc1N1CCN(CCO)CC1)CC(Cc1ncccc1C(F)(F)F)C2=O (stereo not drawn) [compound 251]
< 500,< 500,< 500,COc1cc2c(cc1N1CCN(C)CC1)CC(Cc1cncc(C(O)(C(F)(F)F)C(F)(F)F)c1)C2=O (stereo not drawn) [compound 256]

# — US9446047B2, “Substituted 2,3-dihydro-1H-inden-1-one retinoic acid-related orphan nuclear receptor antagonists for treating multiple sclerosis” (Arrien Pharmaceuticals LLC, priority 2013, dated 2016)
